{"source": "patent EP0294814B1", "about": "“Treating agents for renal diseases” (DAIICHI PHARMACEUTICAL CO., LTD., priority 1987, dated 1988)", "key": {"[1]": {"system": "diabetic nephropathy or glomerulonephritis", "conditions": "applied to diabetic nephropathy or glomerulonephritis, literature reports; cited from earlier work"}, "thromboxane A₂": {"system": "thromboxane A₂", "conditions": "known from prior art; cited from earlier work"}, "Hydronephrotic Kidney": {"system": "Hydronephrotic Kidney", "experiment": "Hydronephrosis model: clearance test", "type": "in vivo, SD male rat", "conditions": "Normal Kidney, 0.3 µg/min infused into renal artery, mean±S.E. of 5 cases", "description": "(§1) An abdominal incision was made in a SD male rat having a body weight of from 300 to 400 g under light anesthesia with diethyl ether. After the left urinary tract was ligated in the middle between the bladder and the kidney, the incision was closed, and the animal was fed on foods and tap water, ad lib.\n(§2) After 18 hours from the ligation of the urinary tract, a cannula was inserted in the urinary tracts on both sides, the right femoral artery and the right femoral vein for collection of blood samples, infusion of inulin and infusion of p-aminohippuric acid, respectively, under Inactin anesthesia. Physiological saline containing 20 mg/ml of inulin and physiological saline containing 4 mg/ml of p-aminohippuric acid were continuously infused each at a rate of 0.4 ml/min in a 1/20 amount of the body weight. On confirming that the urinary output became constant after 50 minutes from the start of the infusion, urine was collected separately from the right and left urinary tracts at intervals of 20 minutes, and blood samples were obtained at the middle between urine collections. Immediately preceding the start of urine collection, infusion of physiological saline at a rate of 25 µl/min into the left femoral artery was instituted and continued for 40 minutes. Thereafter, a solution of a hydrochloride hemihydrate of Compound A in physiological saline was continuously infused at a dose level of 0.3 µg/25 µl/min/rat for 40 minutes into the inlet of the renal artery through a retrograde cannula inserted from the left femoral artery. Inulin levels in urine and in blood were determined according to the anthrone method (H.H. Hilger et al., Pflügers Arch Physiol., Vol. 267, 218 (1958)), and p-aminohippuric acid levels in urine and blood were determined according to the method of Smith et al. (H.W. Smith et al., J. Clin. Invest., Vol. 24, 388 (1945)), to calculate clearance values of inulin and p-aminohippuric acid."}, "[2]": {"experiment": "Hydronephrosis model: clearance test", "type": "in vivo, SD male rat", "conditions": "Normal Kidney, 0.3 µg/min infused into renal artery, mean±S.E. of 5 cases", "description": "as §1, §2"}, "Diabetic SHR": {"system": "Diabetic SHR", "experiment": "Diabetic nephropathy model: excretion of protein, γ-GTP and NAβG in the urine", "type": "in vivo, rat", "conditions": "after 4 months of administration", "description": "(§3) 5-Week old spontaneous hypertensive male rats (SHR) and normotensive Wister Kyoto rats (WKY), both available from Nippon Charles River, were used. Streptozotocin (STZ) was dissolved in a 0.1M citrate buffer solution (pH 4.5) and injected to the tail vein of the rat at a dose level of 50 mg/kg to prepare a diabetic rat. For control, the rat received 1 ml/kg of the citrate buffer solution alone through administration to the tail vein. After one week from the STZ administration, blood was taken from the tail vein of the unanesthetized rat, and the blood sugar level was measured. Those rats having a blood sugar level of […] or higher were used as diabetic rats. […]\nAfter 4 months from the start of the administration of Compound A, urine was collected for 24 hours, and the protein, γ-GTP activity and NAβG activity in the urine were determined by the method of Kinsbury et al., the method of using a commercially available kit (γ-GTP Test Pack, produced by Sankyo Co., Ltd.), and the method of Hasebe et al., respectively."}, "[3]": {"system": "Ischemic Insufficient Kidney", "experiment": "Ischemic renal insufficiency model: renal function", "type": "in vivo, SD rat", "conditions": "10 mg/kg intraperitoneally 30 minutes before ligature of renal arteries; 24 hours after reperfusion; mean±S.E.", "description": "An abdominal incision was made in a SD vale rat weighing 300 to 450 g under pentobarbital anesthesia, and renal arteries of both sides were ligated with a clamp for 40 minutes and then reopened to prepare an animal suffering from isochemic renal insufficiency.\nThe hydrochloride hemihydrate of Compound A was dissolved in physiological saline, and administered intraperitoneally to the test animal at a dose level of 10 mg/2 ml/kg 30 minutes before the ligature of the renal arteries. The control group received the same volume of physiological saline.\nAfter the blood flow of the renal arteries was restored, the animal was fed on foods and tap water ad lib. for 24 hours. The clearance values of inulin and p-aminohippuric acid were determined in the same manner as described in Example 2."}, "[4]": {"experiment": "Diabetic nephropathy model: influence on body weight of SHR and diabetic SHR", "type": "in vivo, rat", "conditions": "SHR", "description": "as §3"}, "rats": {"system": "rats", "experiment": "Acute toxicity in rats", "type": "in vivo", "excerpt": "Acute toxicities of a hydrochloride hemihydrate of Compound A in rats through oral administration or intravenous injection were as follows."}}, "note": "Where a name gives a salt, the structure may show the parent alone."}
{"smiles": "Cl.O=C(O)/C=C/c1ccc(Cn2ccnc2)cc1", "note": "[(E)-3-(4-(1-Imidazolylmethyl)phenyl)propenoic acid hydrochloride, reference compound]", "values": [{"measurement": "effect in treatment of renal diseases", "setting": "[1]", "value": "not satisfactory"}, {"measurement": "inhibition of the synthesis of thromboxane A₂", "setting": "thromboxane A₂", "value": "inhibit the synthesis of thromboxane A₂"}]}
{"smiles": "O=C(O)c1ccc2c(c1)CCC(Cn1ccnc1)C2", "note": "(centres unmarked) [Compound A, 6-(1-imidazolylmethyl)-5,6,7,8-tetrahydronaphthalene-2-carboxylic acid]", "values": [{"measurement": "Urinary Output", "setting": "Hydronephrotic Kidney", "value": "7.47± 0.83", "unit": "µℓ/min/ kidney"}, {"measurement": "p-Aminohippuric Acid Clearance", "setting": "Hydronephrotic Kidney", "value": "5.95±0.50", "unit": "ml/min/kidney"}, {"measurement": "Inulin Clearance", "setting": "[2]", "value": "1.77± 0.13", "unit": "ml/min/ kidney"}, {"measurement": "Excretion in Urine for 24 h NAβG", "setting": "Diabetic SHR; 1 mg/kg/day oral", "value": "0.536± 0.086", "unit": "mg/100 g B.W."}, {"measurement": "Excretion in Urine for 24 h Protein", "setting": "Diabetic SHR; 1 mg/kg/day oral", "value": "6.82± 1.56", "unit": "mg/100 g B.W."}, {"measurement": "Excretion in Urine for 24 h γ-GTP", "setting": "Diabetic SHR; 1 mg/kg/day oral", "value": "2.83± 0.32", "unit": "U/100 g B.W."}, {"measurement": "Excretion in Urine for 24 h NAβG", "setting": "Diabetic SHR; 10 mg/kg/day oral", "value": "0.412± 0.056", "unit": "mg/100 g B.W."}, {"measurement": "Excretion in Urine for 24 h Protein", "setting": "Diabetic SHR; 10 mg/kg/day oral", "value": "4.00± 0.59", "unit": "mg/100 g B.W."}, {"measurement": "Excretion in Urine for 24 h γ-GTP", "setting": "Diabetic SHR; 10 mg/kg/day oral", "value": "2.45± 0.22", "unit": "U/100 g B.W."}, {"measurement": "Inulin Clearance", "setting": "[3]", "value": "0.32± 0.05", "unit": "ml/min/kidney"}, {"measurement": "Urinary Output", "setting": "[3]", "value": "11.30± 1.53", "unit": "µl/min/kidney"}, {"measurement": "p-Aminohippuric Acid Clearance", "setting": "[3]", "value": "1.01±0.17", "unit": "ml/min/kidney"}, {"measurement": "inhibition of the synthesis of thromboxane A₂", "setting": "thromboxane A₂", "value": "inhibit the synthesis of thromboxane A₂"}, {"measurement": "Body Weight (Mean±S.E.)", "setting": "[4]; 1 mg/kg/day, 1 Month after start of admin.", "value": "280.3 ± 4.0", "unit": "g"}, {"measurement": "Body Weight (Mean±S.E.)", "setting": "[4]; 1 mg/kg/day, 5 Months after start of admin.", "value": "392.4 ± 5.6", "unit": "g"}, {"measurement": "Body Weight (Mean±S.E.)", "setting": "[4]; 10 mg/kg/day, 1 Month after start of admin.", "value": "278.7 ± 5.3", "unit": "g"}, {"measurement": "Body Weight (Mean±S.E.)", "setting": "[4]; 10 mg/kg/day, 5 Months after start of admin.", "value": "385.3 ± 7.5", "unit": "g"}]}
{"smiles": "O=C(O)c1ccc2c(c1)CCC(Cn1ccnc1)C2", "note": "(centres unmarked) [hydrochloride hemihydrate of Compound A, 6-(1-imidazolylmethyl)-5,6,7,8-tetrahydronaphthalene-2-carboxylic acid]", "values": [{"measurement": "LD₅₀", "setting": "rats; Female rats, i.v.", "value": "783 (i.v.) mg"}, {"measurement": "LD₅₀", "setting": "rats; Female rats, p.o.", "value": "1994 (p.o.) mg"}, {"measurement": "LD₅₀", "setting": "rats; Male rats, i.v.", "value": 807, "unit": "mg"}, {"measurement": "LD₅₀", "setting": "rats; Male rats, p.o.", "value": 2438, "unit": "mg"}]}
